Values after ≈ are worked out from the molar mass of the structure shown. Where a name gives a salt, the structure may show the parent alone. Read-outs that look alike come from different tables or passages of the source.

The text below walks through data of US10266544B2, “Aryl substituted aminomethyl spectinomycin analogs as antibacterial agents” (ST. JUDE CHILDREN'S RESEARCH HOSPITAL, INC., priority 2013, dated 2019).

Holding throughout (format): cell-based
Assay [1] relates to Bacillus anthracis, Sterne 34F2. The experiment in a line: microbe, parasite or virus in culture. The note with it: STERNE34F2, read-out: MIC B.a.
Assay [2] has as its system Enterococcus faecalis (ATCC 33186). Kind of assay: MIC determination, microbroth dilution. The note with it: ATCC33186; Enterococcus faecalis (ATCC 33186); read-out: MIC E.f.
For assay [3], the system named is Staphylococcus aureus (ATCC 29213). Kind of assay: MIC determination, microbroth dilution. The note with it: ATCC29213; Staphylococcus aureus (ATCC 29213); read-out: MIC S.a. (In general: In broth dilution the organism is exposed to a series of concentrations in liquid medium.)
Assay [4] deals with MRSA, Staphylococcus aureus (NRS70). The experiment in a line: MIC determination, microbroth dilution. The note with it: Staphylococcus aureus (NRS70); read-out: MIC MRSA.
For assay [5], the system named is Streptococcus pneumoniae (R6). Kind of assay: MIC determination, microbroth dilution. The note with it: Streptococcus pneumoniae (R6); read-out: MIC S. pn.
Assay [6] has as its system Streptococcus pyogenes (ATCC 700294). The experiment in a line: MIC determination, microbroth dilution. The note with it: ATCC700294; Streptococcus pyogenes (ATCC 700294); read-out: MIC S. py.
In assay [7] the test system is acinetobacter baumannii (ATCC 19606). Kind of assay: MIC determination, microbroth dilution. The note with it: ATCC19606.
In assay [8] the test system is Burkholderia cepacia (ATCC 25416). The experiment in a line: MIC determination, microbroth dilution. The note with it: Burkholderia cepacia.
Assay [9] has as its system Escherichia coli (ATCC 700926). Kind of assay: MIC determination, microbroth dilution.
Assay [10] concerns E. coli K12 ΔtolC. Kind of assay: microbe, parasite or virus in culture. The note with it: Escherichia coli, read-out: MIC E.c. Δtolc.
In assay [11] the test system is Klebsiella pneumoniae (ATCC 33495). The experiment in a line: MIC determination, microbroth dilution. The note with it: ATCC33495.
Assay [12] concerns Haemophilus influenza (ATCC 49247). The experiment in a line: microbe, parasite or virus in culture. The note with it: ATCC49247; Haemophilus influenza; 4 μg per disc; range of at least two experiments; read-out: Zone of inhibition H.i.
Assay [13] has as its system Legionella pneumophila (ATCC 33153). The experiment in a line: microbe, parasite or virus in culture. The note with it: ATCC33153, 72 h, read-out: Zone of inhibition L.p.
Assay [14] deals with Neisseria meningitides (ATCC 13077). The experiment in a line: Disc diffusion assay. The note with it: ATCC13077, 4 μg per disc, read-out: Zone of inhibition N.m.
In assay [15] the test system is Neisseria gonorrhoeae (ATCC 49226). Kind of assay: Agar MIC determination (Alamar Blue). The note with it: ATCC49226, agar MIC, read-out: MIC N.g.
In assay [16] the test system is M. tuberculosis clinical isolates. The experiment in a line: microbe, parasite or virus in culture. The note with it: Mycobacterium tuberculosis, H37RV, read-out: MIC H37Rv.
Assay [17] has as its system Bacillus subtilis (ATCC 23857). The experiment in a line: MIC determination, microbroth dilution. The note with it: ATCC23857; Bacillus subtilis (ATCC 23857); read-out: MIC B.s.
The subject of assay [18] is Pseudomonas aeruginosa (PA01). The experiment in a line: MIC determination, microbroth dilution.
The subject of assay [19] is Proteus mirabilis (ATCC 25933). The experiment in a line: MIC determination, microbroth dilution. The note with it: ATCC25933.
Assay [20] has as its system Proteus vulgaris (ATCC 33420). Kind of assay: MIC determination, microbroth dilution. The note with it: ATCC33420.
Assay [21] relates to Stenotrophomonas maltophilia (ATCC 13637). The experiment in a line: MIC determination, microbroth dilution. The note with it: ATCC13637; Stenotrophomonas maltophilia (ATCC 13637); read-out: MIC S.m.
For assay [22], the system named is Neisseria gonorrhoeae (ATCC 49226). Kind of assay: Disc diffusion assay. The note with it: ATCC49226, 4 μg per disc, read-out: Zone of inhibition N.g. (In general: Agar diffusion results depend on both activity and mobility in agar.)
Assay [23] relates to Bacillus anthracis. The experiment in a line: microbe, parasite or virus in culture. The note with it: read-out: MIC B.a.
The test system of assay [24] is Listeria monocytogenes. The experiment in a line: MIC determination (Table 6).
Assay [25] deals with Moraxella catarrhalis. The experiment in a line: MIC determination (Table 6).
[26] abbreviates: ATCC25416, read-out: MIC B.c., Burkholderia cepacia (ATCC 25416).
[27] abbreviates: ATCC700926, Escherichia coli (ATCC 700926), read-out: MIC E.c.
The mark [28] stands for this setting: ATCC25416, read-out: MIC B.c., Burkholderia cepacia, Table 6.

Regarding `CN[C@@H]1[C@H](O)[C@H](NC)[C@H]2O[C@]3(O)[C@H](O[C@@H]2[C@H]1O)O[C@H](C)C[C@]3(O)CNCc1ccc(F)cc1` [compound 28, 3′-(S)-3′-[(4-fluoro)benzylaminomethyl)]dihydrospectinomycin Trihydrochloride], the MIC in assay [1] is greater than 200 µg/mL; in assay [2] it was greater than 200 µg/mL; in assay [3], greater than 200 µg/mL; in [4] it was greater than 200 µg/mL; in [5] it was no less than 200 µg/mL; in [6] it was 100 to 200 µg/mL. Further, the MIC in assay [7] was greater than 200 µg/mL; in [8] (setting [26]), greater than 200 µg/mL; in assay [9] (setting [27]), greater than 200 µg/mL; in assay [10], no less than 200 µg/mL; in [11] it was greater than 200 µg/mL; in [15] it was 200 µg/mL. For the same molecule, the MIC in [16] came to 200 µg/mL. Moreover, the zone of inhibition at 4 µg/disc in assay [12], in assay [13] and in assay [14] was 0 mm throughout.
As to `CN[C@@H]1[C@H](O)[C@H](NC)[C@H]2O[C@]3(O)[C@H](O[C@@H]2[C@H]1O)O[C@H](C)C[C@@]3(O)CNCc1nc2ccccc2s1` [compound 34, 3′-(A′)-3′-(benzo[d]thiazolylmethyl)aminomethyl dihydrospectinomycin Trihydrobromide], the MIC is 50 µg/mL in [1]; 50 to 100 µg/mL in assay [17]; 25 µg/mL in assay [2]; 50 to 100 µg/mL in assay [3]; 100 to 200 µg/mL in assay [4]; 6.3 µg/mL in assay [5]. Further, the MIC in [6] is 3.1 µg/mL; in [7], greater than 200 µg/mL; in assay [8] (setting [26]), greater than 200 µg/mL; in assay [11], 100 to 200 µg/mL; in assay [18], greater than 200 µg/mL; in assay [19], greater than 200 µg/mL. In addition, the MIC was greater than 200 µg/mL in [20], 100 µg/mL in assay [21], 100 µg/mL in assay [15] and 12.5 µg/mL in assay [16]. Moreover, the zone of inhibition (as a rule, the size of the clear area around the sample on an inoculated plate) at 4 µg/disc in assay [12] amounted to 7 mm; in assay [14], 12 mm; in assay [22], 8 mm.
In the case of `CN[C@@H]1[C@H](O)[C@H](NC)[C@H]2O[C@]3(O)[C@H](O[C@@H]2[C@H]1O)O[C@H](C)C[C@@]3(O)CNCc1cccc(C)n1` [compound 22, 3′-(A)-3′-[(6-Methyl)-2-pyridinylmethylamino)dihydrospectinomycin Tetrahydrobromide], the MIC was 50 µg/mL in assay [1]; 50 µg/mL in assay [17]; 25 µg/mL in assay [2]; 50 to 100 µg/mL in assay [3]; no less than 200 µg/mL in assay [4]; 6.3 to 12.5 µg/mL in [5]. The MIC in assay [6] was 6.3 µg/mL; in assay [7], greater than 200 µg/mL; in assay [8] (setting [26]), greater than 200 µg/mL; in [8] (setting [28]) it was greater than 200 µg/mL; in assay [9] (setting [27]) it was 100 to 200 µg/mL; in assay [10], 25 µg/mL. For the same molecule, the MIC in assay [11] was greater than 200 µg/mL; in assay [18] it was greater than 200 µg/mL; in [19], greater than 200 µg/mL; in assay [20], greater than 200 µg/mL; in assay [21] it was 12.5 µg/mL; in [15] it was 100 µg/mL. Also, the MIC in assay [23] is 50 µg/mL; in assay [16], 6.3 µg/mL; in assay [24] it was 12.5 µg/mL; in [25] it was 3.1 µg/mL. The zone of inhibition at 4 µg/disc in assay [12] came to 10 mm; in assay [14], 14 mm; in assay [22], 11 mm.
As to `CN[C@@H]1[C@H](O)[C@H](NC)[C@H]2O[C@]3(O)[C@H](O[C@@H]2[C@H]1O)O[C@H](C)C[C@@]3(O)CNCc1ccc(C)cc1C` [compound 24, 3′-(R)-3′-[(2,4-dimethyl)benzylaminomethyl)]dihydrospectinomycin Trihydrochloride], the MIC in assay [1] is 50 µg/mL; in assay [17], 12.5 µg/mL; in [2], 12.5 µg/mL; in assay [3], 6.3 to 12.5 µg/mL; in assay [4], 50 µg/mL; in assay [5], 3.1 µg/mL. The MIC was 1.6 µg/mL in assay [6]; 200 µg/mL in assay [7]; greater than 200 µg/mL in [8] (setting [26]); greater than 200 µg/mL in [8] (setting [28]); 25 µg/mL in assay [9] (setting [27]); 12.5 to 25 µg/mL in assay [10]. The MIC in [11] was 100 to 200 µg/mL; in [18] it was 50 µg/mL; in assay [19], greater than 200 µg/mL; in assay [20], 200 µg/mL; in assay [21], 25 to 50 µg/mL; in assay [23], 50 µg/mL. In addition, the results for the MIC in [16], in assay [24] and in [25] were 25 µg/mL, 12.5 µg/mL and 1.6 µg/mL, respectively. Moreover, the zone of inhibition at 4 µg/disc in [12] came out at 14 mm; in assay [13], 18 mm; in [14] it was 17 mm; in [22], 18 mm.
For the molecule `CN[C@@H]1[C@H](O)[C@H](NC)[C@H]2O[C@]3(O)[C@H](O[C@@H]2[C@H]1O)O[C@H](C)C[C@]3(O)CNCc1ccc(OC(F)(F)F)cc1` (stereo in doubt) [compound 26, 3′-(S)-3′-[(4-trifluoromethoxyl)benzylaminomethyl)]dihydrospectinomycin Trihydrochloride], the MIC in assay [1] is no less than 200 µg/mL; in assay [17], 100 to 200 µg/mL; in assay [2] it was greater than 200 µg/mL; in assay [3], no less than 200 µg/mL; in assay [4] it was greater than 200 µg/mL; in assay [5] it was greater than 200 µg/mL. Also, the MIC in [6] is greater than 200 µg/mL; in [7], 50 to 100 µg/mL; in assay [8] (setting [26]), greater than 200 µg/mL; in assay [9] (Escherichia coli, ATCC700926, read-out: MIC E.c.) it was 50 µg/mL; in [10] it was 6.3 µg/mL; in assay [11], 100 µg/mL. The MIC in assay [18] was greater than 200 µg/mL; in assay [19], greater than 200 µg/mL; in assay [20] it was greater than 200 µg/mL; in [21] it was 50 µg/mL; in [15], 50 to 100 µg/mL; in assay [16], 100 µg/mL. The zone of inhibition at 4 µg/disc in assay [13] turned out to be 8 mm.
As for `CN[C@@H]1[C@H](O)[C@H](NC)[C@H]2O[C@]3(O)[C@H](O[C@@H]2[C@H]1O)O[C@H](C)C[C@@]3(O)CNCc1cnc[nH]1` [compound 20], the MIC in [1] is 50 to 100 µg/mL (≈ 113 to 225 µM); in assay [17], 25 µg/mL (≈ 56.4 µM); in assay [2] it was 100 µg/mL (≈ 225 µM); in [3] it was 200 µg/mL (≈ 451 µM); in assay [4], no less than 200 µg/mL; in assay [5], 25 to 50 µg/mL (≈ 56.4 to 113 µM). The MIC in assay [6] was 50 µg/mL (≈ 113 µM); in [7], greater than 200 µg/mL; in assay [8] (setting [26]) it was 100 to 200 µg/mL (≈ 225 to 451 µM); in assay [8] (setting [28]) it was 100 to 200 µg/mL (≈ 225 to 451 µM); in assay [9] (setting [27]), 50 µg/mL (≈ 113 µM); in assay [10] it was 25 µg/mL (≈ 56.4 µM). Further, the MIC is 50 to 100 µg/mL (≈ 113 to 225 µM) in assay [11]; 200 µg/mL (≈ 451 µM) in assay [18]; 200 µg/mL (≈ 451 µM) in assay [19]; 100 to 200 µg/mL (≈ 225 to 451 µM) in [20]; 3.1 to 6.3 µg/mL (≈ 6.99 to 14.2 µM) in [21]; 100 to 200 µg/mL (≈ 225 to 451 µM) in assay [15]. In addition, the MIC in [23] was 50 to 100 µg/mL (≈ 113 to 225 µM); in assay [16] it was 6.3 µg/mL (≈ 14.2 µM).
